These results are taken from paper PMC11673335, “Mannich Base Derived from Lawsone Inhibits PKM2 and Induces Neoplastic Cell Death” (Biomedicines, 2024).

The target in the experiment is T1, PKM2 (pyruvate kinase M2) (Homo sapiens, UniProt P14618).
T1 construct: gene PKM; recombinant human PKM2 (Sigma-Aldrich #SAE0021)
Kind of experiment: LDH-coupled PKM2 activity assay; confirmed by ATP production (CellTiter-Glo). The class given is biochemical. (Cellular ATP, detected with luciferase, serves as a proxy for viable cell number.)

T1 sequence (P14618 2-531): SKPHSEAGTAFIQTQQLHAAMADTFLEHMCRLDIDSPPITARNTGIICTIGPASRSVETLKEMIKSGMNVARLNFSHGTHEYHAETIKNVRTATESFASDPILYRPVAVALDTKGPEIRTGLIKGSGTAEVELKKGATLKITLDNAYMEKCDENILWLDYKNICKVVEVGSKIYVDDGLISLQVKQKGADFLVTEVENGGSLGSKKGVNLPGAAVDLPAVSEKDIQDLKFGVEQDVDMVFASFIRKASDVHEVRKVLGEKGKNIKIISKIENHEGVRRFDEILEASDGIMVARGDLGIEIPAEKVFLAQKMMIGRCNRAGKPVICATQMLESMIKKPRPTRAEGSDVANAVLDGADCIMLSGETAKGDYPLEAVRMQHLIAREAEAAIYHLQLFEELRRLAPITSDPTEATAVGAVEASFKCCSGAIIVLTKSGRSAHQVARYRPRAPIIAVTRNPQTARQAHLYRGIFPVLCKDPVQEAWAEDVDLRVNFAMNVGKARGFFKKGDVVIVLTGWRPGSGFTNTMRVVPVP

As usually defined, the IC50 is the point on the concentration scale where inhibition reaches its midpoint. A higher IC50 goes with lower potency. In the case of “methyl benzyl((4-chlorophenyl)(3-((methoxycarbonyl)oxy)-1,4-dioxo-1,4-dihydronaphthalen-2-yl)methyl)carbamate [MB-6a]”, inhibition was half-maximal at 1.04 µM (IC50).
